Measurements reported in the supplement of paper PMC5412046.
Counter-ions that a name gives are not always drawn.

How the values were obtained:
[1] = test system: SB.mhdgc-1; experiment: viability at highest tested concentration (MAXR) relative to DMSO; higher = less cytotoxic; settings: SB.mhdgc-1 (hereditary c.1380delA CDH1 gastric cancer)
How it was run: (§1)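 Compound in DMSO was pinned (23 nL) at 11 threefold-diluted concentrations into wells containing 500 patient-derived gastric cancer cells, hereditary or sporadic, in 5 μL medium per 1536 well. Cells were incubated for 48 h, then exposed to CellTiter-Glo for 30 min at room temperature. Luminescence was measured on a ViewLux. The values are viability normalised to DMSO, either at the highest concentration or as trapezoidal area under the curve.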

[2] = test system: SB.msgc-1; experiment: as above; settings: SB.msgc-1 (sporadic gastric cancer)
How it was run: as §1

[3] = test system: SB.mhdgc-1; experiment: area under the dose-response curve of % viability (trapezoidal, 11 doses) (% viability x log10 concentration); higher = less cytotoxic; settings: SB.mhdgc-1 (hereditary c.1380delA CDH1 gastric cancer)
How it was run: as §1

[4] = test system: SB.msgc-1; experiment: as above; settings: SB.msgc-1 (sporadic gastric cancer)
How it was run: as §1

C[C@@H]1CC[C@@]2(CC[C@]3(C)\C(=C/C[C@@H]4[C@@]5(C)CC[C@H](O)C(C)(C)[C@@H]5CC[C@@]34C)[C@@H]2[C@H]1C)C(O)=O [Ursolic acid] (top concentration 92.1659 µM)
viability [1]: 3.71% | viability [2]: 4.45% | area under the dose-response curve [3]: 478 | area under the dose-response curve [4]: 495

C/C=C1\NC(=O)[C@H]2CSSCC/C=C\[C@H](CC(=O)N[C@H](C(C)C)C(=O)N2)OC(=O)[C@H](C(C)C)NC1=O [Romidepsin] (top concentration 46.0829 µM)
viability [1]: 35.1% | viability [2]: 4.4% | area under the dose-response curve [3]: 316 | area under the dose-response curve [4]: 146

C=C1C(=O)OC(CCCCCCCC)C1C(=O)O (stereo not given) [C-75] (top concentration 46.0829 µM)
viability [1]: 94.9% | viability [2]: 54.4% | area under the dose-response curve [3]: 530 | area under the dose-response curve [4]: 560

NC12CC3CC(CC(C3)C1)C2 [Amantadine hydrochloride] (top concentration 46.0829 µM)
viability [1]: 55.3% | viability [2]: 43.7% | area under the dose-response curve [3]: 438 | area under the dose-response curve [4]: 497

CN(C)CCOC(c1ccccc1)c1ccccc1 [Diphenhydramine] (top concentration 46.0829 µM)
viability [1]: 10.1% | viability [2]: 45.7% | area under the dose-response curve [3]: 452 | area under the dose-response curve [4]: 454

Cc1ccc(/C=N/NC(=O)c2ccccc2Oc2ccccc2)o1 (top concentration 46.0829 µM)
viability [1]: 76.1% | viability [2]: 71.4% | area under the dose-response curve [3]: 509 | area under the dose-response curve [4]: 518

O=C(Nc1cccc(Br)c1)c1cccc([S+](=O)([O-])N2CCCCCC2)c1 [Ak-7] (top concentration 46.0829 µM)
viability [1]: 53.6% | viability [2]: 38.5% | area under the dose-response curve [3]: 503 | area under the dose-response curve [4]: 463

Cc1nn(Cc2ccccc2Cl)c(C)c1CN(C)CC(O)COc1ccc(Cl)cc1 (stereo not given) (top concentration 46.0829 µM)
viability [1]: 4.77% | viability [2]: 58.7% | area under the dose-response curve [3]: 519 | area under the dose-response curve [4]: 529

O=C(c1ccc(C(=O)N2CCC(N3CCCC3)CC2)c(Nc2ccccc2)c1)N1CCC(N2CCCC2)CC1 [UNC1215] (top concentration 46.0829 µM)
viability [1]: 154% | viability [2]: 111% | area under the dose-response curve [3]: 589 | area under the dose-response curve [4]: 525

CNC(=O)c1c(F)cccc1Nc1nc(Nc2cc3c(cc2OC)CCN3C(=O)CN(C)C)nc2[nH]ccc12 (top concentration 46.0829 µM)
viability [1]: 1.17% | viability [2]: 2.95% | area under the dose-response curve [3]: 302 | area under the dose-response curve [4]: 460

O=[S+]([O-])(CC1CS1)c1ccc(Oc2ccccc2)cc1 (stereo not given) [SB-3CT] (top concentration 46.0829 µM)
viability [1]: 8.55% | viability [2]: 57.8% | area under the dose-response curve [3]: 510 | area under the dose-response curve [4]: 497

O=C(CCCCCCC(=O)Nc1ccccc1)NO [Vorinostat] (top concentration 46.0829 µM)
viability [1]: 43.4% | viability [2]: 5.85% | area under the dose-response curve [3]: 456 | area under the dose-response curve [4]: 382

CCOc1cc(CC(=O)N[C@@H](CC(C)C)c2ccccc2N2CCCCC2)ccc1C(=O)O [Repaglinide] (top concentration 46.0829 µM)
viability [1]: 114% | viability [2]: 119% | area under the dose-response curve [3]: 559 | area under the dose-response curve [4]: 567

CCN(CC)CCN1C(=O)\C(=N/C2=CC=CC=C12)CC3=CC=C(OC)C=C3 [Caroverine hydrochloride] (top concentration 46.0829 µM)
viability [1]: 119% | viability [2]: 116% | area under the dose-response curve [3]: 541 | area under the dose-response curve [4]: 595

Cc1c[nH]c(/C=C2\C(=O)Nc3ccccc32)c1CCC(=O)O [SU-5402] (top concentration 46.0829 µM)
viability [1]: 47.1% | viability [2]: 58.5% | area under the dose-response curve [3]: 546 | area under the dose-response curve [4]: 482

COC(=O)Nc1ccc(-c2nc(N3CCOCC3)c3cnn(C4CCN(C(=O)OC)CC4)c3n2)cc1 [WYE-354] (top concentration 46.0829 µM)
viability [1]: 34.2% | viability [2]: 57.3% | area under the dose-response curve [3]: 191 | area under the dose-response curve [4]: 339

S=P(N1CC1)(N1CC1)N1CC1 [ThioTEPA] (top concentration 46.0829 µM)
viability [1]: 47.4% | viability [2]: 75% | area under the dose-response curve [3]: 519 | area under the dose-response curve [4]: 514

CC(NCc1ccc2c(c1)[nH]/c(=N\C(=O)c1ccc(-c3cn[nH]c3)s1)n2CC(C)(C)O)C(C)(C)C (stereo not given) (top concentration 46.0829 µM)
viability [1]: 1.16% | viability [2]: 28.3% | area under the dose-response curve [3]: 312 | area under the dose-response curve [4]: 421

O=C(NCC1CCCCN1)c1cc(OCC(F)(F)F)ccc1OCC(F)(F)F (stereo not given) [Flecainide] (top concentration 46.0829 µM)
viability [1]: 3.79% | viability [2]: 7.7% | area under the dose-response curve [3]: 456 | area under the dose-response curve [4]: 499

COC(=O)Nc1nc2ccc([S+]([O-])c3ccccc3)cc2[nH]1 (stereo not given) [Oxfendazole] (top concentration 46.0829 µM)
viability [1]: 59.2% | viability [2]: 37.7% | area under the dose-response curve [3]: 438 | area under the dose-response curve [4]: 472

COc1nccc(-c2c(-c3ccc(F)cc3)ncn2C2CCNCC2)n1 (top concentration 46.0829 µM)
viability [1]: 68.6% | viability [2]: 83.4% | area under the dose-response curve [3]: 544 | area under the dose-response curve [4]: 553

CN(Cc1cnc2nc(N)nc(N)c2n1)c1ccc(C(=O)N[C@@H](CCC(=O)O)C(=O)O)cc1 [Methotrexate] (top concentration 46.0829 µM)
viability [1]: 61.7% | viability [2]: 37.8% | area under the dose-response curve [3]: 440 | area under the dose-response curve [4]: 348

CNC(=O)c1cc(Oc2ccc(NC(=O)Nc3ccc(Cl)c(C(F)(F)F)c3)c(F)c2)ccn1 [Regorafenib] (top concentration 46.0829 µM)
viability [1]: 6.16% | viability [2]: 13.6% | area under the dose-response curve [3]: 428 | area under the dose-response curve [4]: 393

c1ccc(CNc2nc(NCc3ccccc3)c3ccccc3n2)cc1 (top concentration 46.0829 µM)
viability [1]: 0.751% | viability [2]: 19% | area under the dose-response curve [3]: 448 | area under the dose-response curve [4]: 456

OC(=O)\C1=C\N(C2=CC=C(F)C=C2)C3=C(C=C(F)C(=C3)N4CCNCC4)C1=O [Sarafloxacin hydrochloride] (top concentration 46.0829 µM)
viability [1]: 95.3% | viability [2]: 102% | area under the dose-response curve [3]: 498 | area under the dose-response curve [4]: 616

Cc1n[nH]c2ccc(-c3cncc(OC[C@@H](N)Cc4ccccc4)c3)cc12 (top concentration 46.0829 µM)
viability [1]: 0.463% | viability [2]: 16.3% | area under the dose-response curve [3]: 389 | area under the dose-response curve [4]: 458

Cc1cc(-c2ccc(CC(=O)Nc3ccc(-c4cccnc4)cc3)cc2)ccn1 [Wnt-C59] (top concentration 46.0829 µM)
viability [1]: 49.6% | viability [2]: 49% | area under the dose-response curve [3]: 497 | area under the dose-response curve [4]: 501

N=C1N[C@H]2[C@H](CS[C@H]2CCCCC(=O)O)N1 [2-Iminobiotin] (top concentration 23.0415 µM)
viability [1]: 122% | viability [2]: 124% | area under the dose-response curve [3]: 624 | area under the dose-response curve [4]: 592

CCCCCCCCCCCCCCCCCCOP(=O)([O-])OC1CC[N+](C)(C)CC1 [Perifosine] (top concentration 23.0415 µM)
viability [1]: 80.1% | viability [2]: 79.6% | area under the dose-response curve [3]: 562 | area under the dose-response curve [4]: 526

CC(=O)N(C)c1cccc(-c2ccnc3c(C(=O)c4cccs4)cnn23)c1 [Indiplon] (top concentration 46.0829 µM)
viability [1]: 101% | viability [2]: 64.2% | area under the dose-response curve [3]: 571 | area under the dose-response curve [4]: 489

CCCc1nc(C(C)(C)O)c(C(=O)O)n1Cc1ccc(-c2ccccc2-c2nn[nH]n2)cc1 [Olmesartan] (top concentration 46.0829 µM)
viability [1]: 124% | viability [2]: 102% | area under the dose-response curve [3]: 573 | area under the dose-response curve [4]: 511

O=C(Nc1cccc(C(F)(F)F)c1)Nc1cc([S+](=O)([O-])NC2CC2)ccc1-c1ccsc1 [AGI-6780] (top concentration 46.0829 µM)
viability [1]: 94.2% | viability [2]: 73.3% | area under the dose-response curve [3]: 560 | area under the dose-response curve [4]: 598

CN(C)c1cc(NC(=O)CNC(C)(C)C)c(O)c2c1C[C@H]1C[C@H]3[C@H](N(C)C)C(O)=C(C(N)=O)C(=O)[C@@]3(O)C(O)=C1C2=O [Tigecycline] (top concentration 46.0829 µM)
viability [1]: 99.4% | viability [2]: 98.6% | area under the dose-response curve [3]: 578 | area under the dose-response curve [4]: 525

COc1cc(CCc2cc(NC(=O)c3ccc(N4C[C@@H](C)N[C@@H](C)C4)cc3)n[nH]2)cc(OC)c1 [AZD-4547] (top concentration 46.0829 µM)
viability [1]: 6.27% | viability [2]: 53.1% | area under the dose-response curve [3]: 482 | area under the dose-response curve [4]: 420

CCCCCN(C)CCC(O)(P(=O)([O-])O)P(=O)(O)O [Ibandronate sodium hydrate] (top concentration 46.0829 µM)
viability [1]: 107% | viability [2]: 108% | area under the dose-response curve [3]: 468 | area under the dose-response curve [4]: 547
